This note sets out measurements from patent US20240199582A1, “INHIBITORS OF POLY(ADP-RIBOSE) POLYMERASE” (RHIZEN PHARMACEUTICALS AG, priority 2021, published 2024).

By Cmax is commonly meant the maximum level reached in the sampled fluid or tissue. In general, Tmax refers to the time from dosing to the highest level. In general, melting point refers to the temperature, or range, at which the solid turns liquid. In general, GI50 refers to the concentration that inhibits growth by half.

Data set [1] can be described thus: Rat pharmacokinetics (oral and IV), plasma by LC-MS/MS. Format: in vivo, rats (Wistar rat strains). Conditions: for AUC(0-t): Compound 1 prepared by Method 2, Compound 1D prepared by Method 2, read-out: AUC0-24. The protocol: The oral bioavailability of Compound 1 and its salts were evaluated in rats. The protocol for the pharmacokinetic (PK) studies in rats is provided below.
Formulation 1: Polysorbate 80 (10% v/v)+Methyl Cellulose (MC) (0.5% w/v) • 1. 200 mg^#of the test compound was weighed and transferred into a mortar. • 2. 1.0 mL of polysorbate 80 (10% v/v of the final suspension) was added to the mortar and the test item was triturated to afford a smooth paste. • 3. 9.0 mL of 0.5% methyl cellulose (4000 cps) was added and triturated to afford a fine suspension. • 4. The final strength of the formulation was 20.0 mg/mL. #For salts of the test compound in order to achieve the equivalent dose level on a molar basis as the free base, a correction factor was used based on the salt and purity. Formulation 2: Propylene Glycol (40% v/v)+60% Methyl Cellulose (MC) (0.5% w/v) • 1. 1400 mg #of the test compound was weighed and transferred into a glass beaker. • 2. 28.0 mL of propylene glycol (1,2-popanediol) (40% v/v of the final volume) was added to the glass beaker and sonicated for 20 min to dissolve. (strength is 50 mg/mL) • 3. At the time of dosing, 20 mL of propylene glycol (50.0 mg/mL) and 30.0 mL of 0.5% methyl cellulose (4000 cps) were mixed with continuous stirring to afford a clear solution • 4. The final strength of the formulation was 20.0 mg/mL. • #For salts of the test compound in order to achieve the equivalent dose level on a molar basis as the free base, a correction factor was used based on the salt and purity.
(§1) Protocol: All animals (mice (BALB/c mice), rats (Wistar rat strains), and dogs (beagle, non-naïve)) were fasted overnight (12 hours) before dosing and continued till 4.0 hours after administration of test item. The blood samples (all collections each of 150 μL from each animal) were collected according to the sampling schedule from orbital sinus or jugular vein into the micro centrifuge tube containing dipotassium EDTA as an anticoagulant. Blood samples were centrifuged immediately with a speed of 4000 RPM for 10 min at 4° C. and separated plasma samples were frozen at below −80° C. and stored until analysis. The plasma concentrations of test item in all samples were analysed by LC-MS/MS method Pharmacokinetic parameters viz. Cmax, AUC0-t, AUC0-∞, Tmax, and t½, were estimated by using WinNonlin software.

The test system of data set [2] is BRCA mutant and non-BRCA mutant cancer cell lines. Nature of the data set: Cell proliferation assay to determine GI50 in BRCA mutant and non-BRCA mutant cancer cell lines. Format: cell-based. Conditions: range over BRCA mutant and non-BRCA mutant cancer cell lines; treatment 72, 120 or 144 hours. The protocol:
On Day “0” the test cells were plated in 100 μL/well in complete media in a 96-well plate in triplicates and plates were incubated at 37° C. and 5% CO2. On Day 1, 10 μL of MTT (5 mg/ml) were added to the column designated for Day “0”. It was mixed well and incubated at 37° C. and 5% CO2 for 3.5 h. Cells were pelleted down at 4000 rpm for 10 minutes. Media was aspirated out and 150 μL of DMSO were added to the cells and mixed by pipetting to dissolve the crystals. Plate was read at A560 nm and A640. DMSO dilutions of the inhibitors (Compound 1 or Compound 1D) were diluted to 3× of required concentration in growth medium. Cells in each well were treated with 50 μL of complete media containing inhibitor. DMSO concentration in the well was 0.1%. Plates were incubated at 37° C. and 5% CO2 as required for 144 hours. 15 μL of MTT (5 mg/mL) was added to the wells. Plates were incubated at 37° C. and 5% CO2 for 3.5 hours. After incubation, cells are pelleted down at 4000 rpm for 10 min. Media was aspirated and 150 μL of DMSO per well were added to dissolve the formazan crystals. Plate was read at A560 nm and A640. […]
Cancer cell lines were plated at desired density in their respective complete media and incubated overnight at 37° C. and 5% CO2. […] At the end of the treatment period, cell viability was measured and GI50 values were calculated.

The nature of data set [3]: Mice pharmacokinetics (IV and oral), plasma by LC-MS/MS. The format is in vivo, mice (BALB/c mice). The protocol:
as §1

Data set [4] is described as follows: Dog pharmacokinetics (IV and oral), plasma by LC-MS/MS. The format is in vivo, dogs (beagle, non-naïve). The protocol:
as §1

[5] abbreviates: Wistar, plasma, oral, 100 mg/kg, Formulation 1: Polysorbate 80 (10% v/v) + MC (0.5% w/v), Compound 1 prepared by Method 2, Compound 1D prepared by Method 2.
Setting [6] is: Wistar, plasma, oral, 100 mg/kg, Formulation 1: Polysorbate 80 (10% v/v) + MC (0.5% w/v).
[7] abbreviates: Wistar, plasma, oral, 100 mg/kg, Formulation 1: Polysorbate 80 (10% v/v) + MC (0.5% w/v), Compound 1 prepared by Method 2, Compound 1D prepared by Method 2, read-out: Tmax.
[8] abbreviates: oral, 100 mg/kg, Formulation 1: Polysorbate 80 (10% v/v) + MC (0.5% w/v), Compound 1 prepared by Method 2, Compound 1D prepared by Method 2.
Setting [9] is: oral, 100 mg/kg, Formulation 1: Polysorbate 80 (10% v/v) + MC (0.5% w/v), Compound 1 prepared by Method 2, Compound 1D prepared by Method 2, 100 mg/kg.
Setting [10] is: oral, 100 mg/kg, Formulation 1: Polysorbate 80 (10% v/v) + MC (0.5% w/v), Compound 1C prepared by Method 1.
Setting [11] is: oral, 100 mg/kg, Formulation 1: Polysorbate 80 (10% v/v) + MC (0.5% w/v), Compound 1C prepared by Method 2.
Setting [12] is: oral, 100 mg/kg, Formulation 2: PG (40% v/v) + 60% MC (0.5% w/v), Compound 1D prepared by Method 2.
The mark [13] stands for this setting: oral, 100 mg/kg, Formulation 2: PG (40% v/v) + 60% MC (0.5% w/v), Compound 1D prepared by Method 3.

`C[C@]1(O)C(=O)N(c2cncc(Cc3n[nH]c(=O)c4ccccc34)c2)c2ccccc21` [Compound 1, (R)-(+)-4-((5-(3-Hydroxy-3-methyl-2-oxoindolin-1-yl)pyridin-3-yl)methyl)phthalazin-1(2H)-one] gave a melting point of 110 to 113 °C. Further, the Cmax in data set [1] (setting [5]) was 2.56 µM. Besides, the AUC(0-t) in data set [1] (setting [6]) was found to be 7.81 µM·h. Further, the Tmax in data set [1] (setting [7]) turned out to be 30 min. The molecule further showed a GI50 in data set [2] of 0.043 to 19.8 µM.
On to `C[C@]1(O)C(=O)N(c2cncc(Cc3n[nH]c(=O)c4ccccc34)c2)c2ccccc21.Cl` [Compound 1A, (R)-(+)-4-((5-(3-Hydroxy-3-methyl-2-oxoindolin-1-yl)pyridin-3-yl)methyl)phthalazin-1(2H)-one, hydrochloride], for which the melting point is 226 to 228 °C. Moreover, the Cmax in data set [1] (setting [5]) was 4.38 µM. Also, in data set [1] (setting [6]), the AUC(0-t) was found to be 23.3 µM·h. The Tmax in data set [1] (setting [7]) was 15 min.
Take `C[C@]1(O)C(=O)N(c2cncc(Cc3n[nH]c(=O)c4ccccc34)c2)c2ccccc21.O=S(=O)(O)c1ccccc1` [Compound 1B, (R)-(+)-4-((5-(3-hydroxy-3-methyl-2-oxoindolin-1-yl)pyridin-3-yl)methyl)phthalazin-1(2H)-one, benzene sulfonate]: in data set [1] (setting [8]), the AUC0-24 was 32.43 µM·h and the Tmax was found to be 30 min. In data set [1] (setting [9]), the Cmax stood at 17.2 µM.
Consider `C[C@]1(O)C(=O)N(c2cncc(Cc3n[nH]c(=O)c4ccccc34)c2)c2ccccc21.Cc1ccc(S(=O)(=O)O)cc1` [Compound 1C, (R)-(+)-4-((5-(3-hydroxy-3-methyl-2-oxoindolin-1-yl)pyridin-3-yl)methyl)phthalazin-1(2H)-one, 4-methylbenzene sulfonate], for which, in data set [1] (setting [10]), the AUC0-24 is 39.98 µM·h, the Cmax came out at 11.9 µM and the Tmax is 30 min. In data set [1] (setting [11]), the AUC0-24 worked out at 23.09 µM·h, the highest concentration (Cmax) was 10.5 µM and the Tmax amounted to 15 min.
In the case of `CS(=O)(=O)O.C[C@]1(O)C(=O)N(c2cncc(Cc3n[nH]c(=O)c4ccccc34)c2)c2ccccc21` [Compound 1D, (R)-(+)-4-((5-(3-Hydroxy-3-methyl-2-oxoindolin-1-yl)pyridin-3-yl)methyl)phthalazin-1(2H)-one, methane sulfonate], the AUC0-24 in data set [3] (IV, 1 mg/kg) was found to be 1.12 µM·h; in data set [3] (oral, 10 mg/kg) it was 5.64 µM·h; in data set [1] (IV, 1 mg/kg), 1.18 µM·h; in data set [1] (oral, 10 mg/kg), 8.96 µM·h; in data set [1] (setting [8]), 34.71 µM·h; in data set [1] (setting [12]), 135.36 µM·h. The AUC0-24 was determined as 139.36 µM·h in data set [1] (setting [13]); 2.73 µM·h in data set [4] (IV, 1 mg/kg); 57.05 µM·h in data set [4] (oral, 20 mg/kg). Also, the C0 in data set [3] (IV, 1 mg/kg) is 3.12 µM; in data set [1] (IV, 1 mg/kg), 5.25 µM; in data set [4] (IV, 1 mg/kg) it was 4.11 µM. Moreover, the Cmax in data set [3] (IV, 1 mg/kg) was 2.87 µM; in data set [3] (oral, 10 mg/kg), 7.62 µM; in data set [1] (IV, 1 mg/kg), 4.47 µM; in data set [1] (oral, 10 mg/kg), 8.43 µM; in data set [1] (setting [9]) it was 13 µM; in data set [1] (setting [12]), 55.6 µM. The Cmax amounted to 53.7 µM in data set [1] (setting [13]); 3.47 µM in data set [4] (IV, 1 mg/kg); 22.9 µM in data set [4] (oral, 20 mg/kg). Also, the Tmax in data set [3] (oral, 10 mg/kg) stood at 15 min; in data set [1] (oral, 10 mg/kg), 22.8 min; in data set [1] (setting [8]) it was 15 min; in data set [1] (setting [12]), 30 min; in data set [1] (setting [13]), 30 min; in data set [4] (oral, 20 mg/kg), 30 min.
